The text below walks through data of patent publication US8426408B2, “Pyrimidine inhibitors of kinases” (AbbVie Inc., priority 2009, dated 2013).

In test [1] the test system is NCI-H1299 cells. Put plainly: Induction of polyploidy in H1299. Format: cell-based, Human. The note with it: NCI-H1299, 48 hours; for EC15: Homo sapiens, read-out: EC15 (concentration of inhibitor necessary to induce polyploidy in 15% of cells). The essentials: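 NCI-H1299 cells in RPMI 1640/10% FCS were treated with inhibitor concentrations in duplicate for 48 h at 37 C, then formalin-fixed and Hoechst-stained. Nuclear area was measured by high-content imaging, with polyploid (≥4N) defined as >750 μ^2. EC15 was derived by least-squares fit of log dose-response.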

Test [2] concerns the target KDR (Homo sapiens, UniProt P35968). Put plainly: KDR HTRF in vitro kinase assay. Format: biochemical. Also noted: purified enzyme (His6-KDR 789-1354, MW 63 kD); His6 (N). As to conditions: 1 mM ATP; read-out: KDR enzyme inhibition data (Ki). Summed up: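 His6-KDR 789-1354 (7 ng/well) with 0.5 μM biotinylated peptide substrate and 1 mM ATP in HEPES pH 7.1, MgCl2/MnCl2, 60 min at room temperature. EDTA-quenched, detected by streptavidin-XL-665 plus Eu-kryptate anti-phosphotyrosine HTRF after 3 h; IC50 from 620/665 nm ratio.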
(In general: TR-FRET usually uses a lanthanide donor and a delayed reading to cut background.)

KDR, sequence (P35968 789-1354): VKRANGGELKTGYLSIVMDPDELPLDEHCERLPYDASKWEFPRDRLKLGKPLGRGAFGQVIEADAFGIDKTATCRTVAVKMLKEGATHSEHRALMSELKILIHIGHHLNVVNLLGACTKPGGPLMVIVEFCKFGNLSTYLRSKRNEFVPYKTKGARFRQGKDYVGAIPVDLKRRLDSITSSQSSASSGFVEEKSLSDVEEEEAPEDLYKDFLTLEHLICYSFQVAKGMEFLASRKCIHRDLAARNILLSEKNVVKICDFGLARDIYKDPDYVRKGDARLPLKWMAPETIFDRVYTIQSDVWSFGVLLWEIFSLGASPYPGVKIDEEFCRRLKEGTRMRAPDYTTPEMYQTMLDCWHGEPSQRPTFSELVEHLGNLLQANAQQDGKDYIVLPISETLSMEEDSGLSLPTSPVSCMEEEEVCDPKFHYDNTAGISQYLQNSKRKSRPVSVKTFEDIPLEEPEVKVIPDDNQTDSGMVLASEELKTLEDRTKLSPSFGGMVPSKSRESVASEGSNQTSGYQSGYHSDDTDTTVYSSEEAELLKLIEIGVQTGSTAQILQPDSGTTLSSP

For `Cc1nn(C)cc1Nc1ncc(Br)c(N[C@H]2[C@@H](C(N)=O)[C@@H]3C=C[C@H]2C3)n1` [Example 135, (1S,2S,3R,4R)-3-({5-bromo-2-[(1,3-dimethyl-1H-pyrazol-4-yl)amino]pyrimidin-4-yl}amino)bicyclo[2.2.1]hept-5-ene-2-carboxamide], the EC15 in test [1] is less than 100 nM. The Ki in test [2] is less than 100 nM.

On to `NC(=O)[C@@H]1[C@H](Nc2nc(Nc3cnn([C@H]4CCOC4)c3)ncc2Br)[C@H]2C=C[C@@H]1C2` [Example 117, (1S,2S,3R,4R)-3-{[5-bromo-2-({1-[(3S)-tetrahydrofuran-3-yl]-1H-pyrazol-4-yl}amino)pyrimidin-4-yl]amino}bicyclo[2.2.1]hept-5-ene-2-carboxamide], for which the EC15 in test [1] is less than 100 nM. Also, the Ki in test [2] is less than 100 nM.

With `Cn1cc(Nc2ncc(C(F)(F)F)c(N[C@H]3[C@@H](C(N)=O)C[C@H]4C[C@@H]3C4(C)C)n2)cn1` [Example 167, (1R,2R,3S,5R)-6,6-dimethyl-2-({2-[(1-methyl-1H-pyrazol-4-yl)amino]-5-(trifluoromethyl)pyrimidin-4-yl}amino)bicyclo[3.1.1]heptane-3-carboxamide], the EC15 in test [1] is less than 100 nM. Also, the Ki in test [2] is less than 100 nM.

For the compound `CNC(=O)Cn1cc(Nc2ncc(Cl)c(N[C@@H]3[C@H]4CC[C@H](C4)[C@@H]3C(N)=O)n2)cn1` [Example 88, (1R,2S,3R,4S)-3-{[5-chloro-2-({1-[2-(methylamino)-2-oxoethyl]-1H-pyrazol-4-yl}amino)pyrimidin-4-yl]amino}bicyclo[2.2.1]heptane-2-carboxamide], the EC15 in test [1] fell in the range of 100 to 1000 nM. The Ki in test [2] was less than 100 nM.

As to `NC(=O)[C@@H]1[C@H](Nc2nc(Nc3cnn(C[C@H](O)CO)c3)ncc2Cl)[C@H]2C=C[C@@H]1C2` [Example 124, (1S,2S,3R,4R)-3-{[5-chloro-2-({1-[(2S)-2,3-dihydroxypropyl]-1H-pyrazol-4-yl}amino)pyrimidin-4-yl]amino}bicyclo[2.2.1]hept-5-ene-2-carboxamide], the EC15 in test [1] was less than 100 nM. Also, the inhibitory constant (Ki) in test [2] is less than 100 nM.

Take `CN1CCN(CCn2cc(Nc3ncc(Cl)c(N[C@@H]4[C@H]5CC[C@H](C5)[C@@H]4C(N)=O)n3)cn2)CC1` [Example 90, (1R,2S,3R,4S)-3-{[5-chloro-2-({1-[2-(4-methylpiperazin-1-yl)ethyl]-1H-pyrazol-4-yl}amino)pyrimidin-4-yl]amino}bicyclo[2.2.1]heptane-2-carboxamide]: the EC15 in test [1] is 100 to 1000 nM. For the same compound, in test [2], the Ki is less than 100 nM.

Regarding `NC(=O)[C@@H]1[C@H](Nc2nc(Nc3cnn(C[C@H]4CCCN4)c3)ncc2Cl)[C@H]2C=C[C@@H]1C2` [Example 102, (1S,2S,3R,4R)-3-{[5-chloro-2-({1-[(2R)-pyrrolidin-2-ylmethyl]-1H-pyrazol-4-yl}amino)pyrimidin-4-yl]amino}bicyclo[2.2.1]hept-5-ene-2-carboxamide], the EC15 in test [1] was less than 100 nM. The Ki in test [2] was less than 100 nM.

Regarding `NC(=O)[C@@H]1[C@H](Nc2nc(Nc3cnn(-c4ccccc4)c3)ncc2Br)[C@H]2C=C[C@@H]1C2` [Example 173, (1S,2S,3R,4R)-3-({5-bromo-2-[(1-phenyl-1H-pyrazol-4-yl)amino]pyrimidin-4-yl}amino)bicyclo[2.2.1]hept-5-ene-2-carboxamide], the EC15 in test [1] was less than 100 nM. In test [2], the Ki was less than 100 nM.

`Cn1cc(Nc2ncc(C(F)(F)F)c(Nc3ccsc3C(N)=O)n2)cn1` [Example 150, 3-({2-[(1-methyl-1H-pyrazol-4-yl)amino]-5-(trifluoromethyl)pyrimidin-4-yl}amino)thiophene-2-carboxamide]: in test [1], the EC15 is less than 100 nM. Besides, the Ki in test [2] was less than 100 nM.

As for `COc1cccc(Cn2cc(Nc3ncc(Br)c(N[C@H]4[C@@H](C(N)=O)[C@@H]5C=C[C@H]4C5)n3)cn2)c1` [Example 159, (1S,2S,3R,4R)-3-[(5-bromo-2-{[1-(3-methoxybenzyl)-1H-pyrazol-4-yl]amino}pyrimidin-4-yl)amino]bicyclo[2.2.1]hept-5-ene-2-carboxamide], the EC15 in test [1] is less than 100 nM. In test [2], the Ki is less than 100 nM.

With `Cn1cc(Nc2ncc(Br)c(Nc3ccccc3C3(O)CCC3)n2)cn1` [Example 132, 1-[2-({5-bromo-2-[(1-methyl-1H-pyrazol-4-yl)amino]pyrimidin-4-yl}amino)phenyl]cyclobutanol], the EC15 in test [1] was in the range of 100 to 1000 nM. The Ki in test [2] was less than 100 nM.

Regarding `CS(=O)(=O)CCn1cc(Nc2ncc(Br)c(N[C@H]3[C@@H](C(N)=O)[C@@H]4C=C[C@H]3C4)n2)cn1` [Example 122, (1S,2S,3R,4R)-3-{[5-bromo-2-({1-[2-(methylsulfonyl)ethyl]-1H-pyrazol-4-yl}amino)pyrimidin-4-yl]amino}bicyclo[2.2.1]hept-5-ene-2-carboxamide], the EC15 in test [1] is less than 100 nM. Also, in test [2], the Ki is less than 100 nM.

As to `CC(O)Cn1cc(Nc2ncc(C(F)(F)F)c(NC3C4CCC(C4)C3C(N)=O)n2)cn1` (mixture of isomers) [Example 21, (1S,2R,3S,4R)-3-{[2-({1-[(2R)-2-hydroxypropyl]-1H-pyrazol-4-yl}amino)-5-(trifluoromethyl)pyrimidin-4-yl]amino}bicyclo[2.2.1]heptane-2-carboxamide and (1R,2S,3R,4S)-3-{[2-({1-[(2R)-2-hydroxypropyl]-1H-pyrazol-4-yl}amino)-5-(trifluoromethyl)pyrimidin-4-yl]amino}bicyclo[2.2.1]heptane-2-carboxamide], the “EC15 (concentration of inhibitor necessary to induce polyploidy in 15% of cells)” value in test [1] is “A (“A” represents an EC15 of less than 0.1 μM)”. Also, the inhibition constant (Ki) in test [2] fell in the range of 100 to 1000 nM.

For `Cn1cc(Nc2ncc(C(F)(F)F)c(Nc3ccccc3C3(O)CCC3)n2)cn1` [Example 115, 1-[2-({2-[(1-methyl-1H-pyrazol-4-yl)amino]-5-(trifluoromethyl)pyrimidin-4-yl}amino)phenyl]cyclobutanol], the EC15 in test [1] is less than 100 nM. Further, the Ki in test [2] was less than 100 nM.

Take `NC(=O)[C@@H]1[C@H](Nc2nc(Nc3cnn(C[C@H](O)CO)c3)ncc2Br)[C@H]2C=C[C@@H]1C2` [Example 131, (1S,2S,3R,4R)-3-{[5-bromo-2-({1-[(2S)-2,3-dihydroxypropyl]-1H-pyrazol-4-yl}amino)pyrimidin-4-yl]amino}bicyclo[2.2.1]hept-5-ene-2-carboxamide]: in test [1], the EC15 was less than 100 nM. In addition, the Ki in test [2] is less than 100 nM.

On to `Cn1cc(Nc2ncc(Cl)c(Nc3ccccc3C3(O)CCC3)n2)cn1` [Example 101, 1-[2-({5-chloro-2-[(1-methyl-1H-pyrazol-4-yl)amino]pyrimidin-4-yl}amino)phenyl]cyclobutanol], for which the EC15 in test [1] is less than 100 nM. Further, the Ki in test [2] is less than 100 nM.

Turning to `C[C@@H](O)Cn1cc(Nc2ncc(Cl)c(N[C@H]3[C@@H](C(N)=O)[C@@H]4C=C[C@H]3C4)n2)cn1` [Example 105, (1S,2S,3R,4R)-3-{[5-chloro-2-({1-[(2R)-2-hydroxypropyl]-1H-pyrazol-4-yl}amino)pyrimidin-4-yl]amino}bicyclo[2.2.1]hept-5-ene-2-carboxamide], the EC15 in test [1] was less than 100 nM. Besides, the Ki in test [2] was less than 100 nM.

For the compound `NC(=O)[C@@H]1[C@H](Nc2nc(Nc3cnn(C4CCC4)c3)ncc2Br)[C@H]2C=C[C@@H]1C2` [Example 123, (1S,2S,3R,4R)-3-({5-bromo-2-[(1-cyclobutyl-1H-pyrazol-4-yl)amino]pyrimidin-4-yl}amino)bicyclo[2.2.1]hept-5-ene-2-carboxamide], the EC15 in test [1] is less than 100 nM. In addition, the inhibition constant (Ki) in test [2] is less than 100 nM.

In the case of `NC(=O)[C@@H]1[C@H](Nc2nc(Nc3cnn(CCc4ccccc4)c3)ncc2Cl)[C@H]2C=C[C@@H]1C2` [Example 143, (1S,2S,3R,4R)-3-[(5-chloro-2-{[1-(2-phenylethyl)-1H-pyrazol-4-yl]amino}pyrimidin-4-yl)amino]bicyclo[2.2.1]hept-5-ene-2-carboxamide], the EC15 in test [1] is less than 100 nM. The Ki in test [2] is less than 100 nM.

For the compound `NC(=O)[C@@H]1[C@H](Nc2nc(Nc3cnn([C@@H]4CCOC4)c3)ncc2Cl)[C@H]2C=C[C@@H]1C2` [Example 107, (1S,2S,3R,4R)-3-{[5-chloro-2-({1-[(3R)-tetrahydrofuran-3-yl]-1H-pyrazol-4-yl}amino)pyrimidin-4-yl]amino}bicyclo[2.2.1]hept-5-ene-2-carboxamide], in test [1], the EC15 is less than 100 nM. In test [2], the Ki is less than 100 nM.

Regarding `NC(=O)[C@@H]1[C@H](Nc2nc(Nc3cnn(CCc4ccccc4)c3)ncc2Br)[C@H]2C=C[C@@H]1C2` [Example 148, (1S,2S,3R,4R)-3-[(5-bromo-2-{[1-(2-phenylethyl)-1H-pyrazol-4-yl]amino}pyrimidin-4-yl)amino]bicyclo[2.2.1]hept-5-ene-2-carboxamide], in test [1], the EC15 was less than 100 nM. Further, in test [2], the Ki was less than 100 nM.

Consider `COc1cccc(CCn2cc(Nc3ncc(Cl)c(N[C@H]4[C@@H](C(N)=O)[C@@H]5C=C[C@H]4C5)n3)cn2)c1` [Example 154, (1S,2S,3R,4R)-3-{[5-chloro-2-({1-[2-(3-methoxyphenyl)ethyl]-1H-pyrazol-4-yl}amino)pyrimidin-4-yl]amino}bicyclo[2.2.1]hept-5-ene-2-carboxamide], for which the EC15 in test [1] was less than 100 nM. Further, in test [2], the Ki is less than 100 nM.

The Ki is a dissociation constant, usually derived from enzyme kinetics or from competition with a known ligand.
